# Results taken from article PMC3411462, “Long-acting κ opioid antagonists nor-BNI, GNTI and JDTic: pharmacokinetics in mice and lipophilicity” (BMC Pharmacology, 2012).
# Several values for one entry are separate records, joined by “and”; a condition that tells them apart may be missing. Equal values may be shown once. Read-outs that look alike come from different tables or passages of the source.
# Key:
# [1] = Brain and plasma concentrations in mice after intraperitoneal administration (LC-MS-MS), non-compartmental analysis; type: in vivo; settings: for [drug],brain (free base equivalent) / [drug],plasma (free base equivalent): listed as nor-BNI.2HCl.H2O; for [drug],brain (free base equivalent) / [drug],plasma (free base equivalent) / AUC(0-inf) / concentration at 0.5 h / concentration at 1 h / concentration at 2 h / concentration at 4 h / concentration at 24 h / CL/F / Vd/F: 10 mg/kg; for AUC(0-inf) / Kp uu / Kp / MRT inf / concentration at 0.5 h / concentration at 1 h / concentration at 2 h / Tmax / AUC(0-t) / Cmax / k el / half-life / concentration at 4 h / concentration at 24 h / CL/F / Vd/F: male, mouse; for MRT inf: read-out: MRT 0-inf_obs; for k el: read-out: Lambda_z (converted); for half-life: read-out: t1/2 (converted)
# [2] = Plasma binding (unbound fraction by ultracentrifugation); type: in vitro ADME; settings: 5 μM drug, mean, n = 3
# Method in brief: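 Plasma was spiked with 5 μM drug and ultracentrifuged at 600,000 g for 5 h at 37 °C. The middle water layer and the original spiked matrix were matrix-matched, extracted with acetonitrile and measured by LC-MS-MS. Fraction unbound is the water-layer to spiked-matrix concentration ratio, corrected for dilution.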
# [3] = Brain homogenate binding (unbound fraction by ultracentrifugation); type: in vitro ADME
# Method in brief: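 Plasma or brain homogenate spiked at 5 μM and ultracentrifuged at 600,000 g for 5 h (37 °C plasma, 5 °C brain). Fraction unbound = LC-MS-MS concentration in middle water layer over spiked matrix, dilution-corrected; in vivo brain free fraction assumed at least 3-fold below homogenate value.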
# mice = test: Fatalities and behavioral effects after i.p. administration; settings: 100 mg kg^-1
# Description: Experiments were performed between 10 am and 6 pm. Mice were not used in other experiments, or exposed to other drugs, before testing began.
# Doses are reported by weight of the specified salt. Intraperitoneal injections were administered in distilled water vehicle (10 mL kg^-1). Body mass was measured to ±0.1 g. Some values were inadvertently measured on a low-precision balance (± 2.5 g); these timepoints were replicated at ±0.1 g.
# [4] = 0.5 h, 10 mg/kg i.p., individual mice
# [5] = 1 h, 10 mg/kg i.p., individual mice
# [6] = 2 h, 10 mg/kg i.p., individual mice
# [7] = Swiss-Webster, ip, brain NCA, 10 mg/kg i.p.
# [8] = Swiss-Webster, ip, plasma NCA, 10 mg/kg i.p.
# [9] = within 1 hour, 10 mg kg^-1 i.p.
# [10] = within 4 hours, 10 mg kg^-1 i.p.
structure (smiles),measurement,setting,value
"Oc1ccc2c3c1O[C@H]1c4[nH]c5c(c4C[C@@]4(O)[C@@H](C2)N(CC2CC2)CC[C@]314)C[C@@]1(O)[C@H]2Cc3ccc(O)c4c3[C@@]1(CCN2CC1CC1)[C@H]5O4 [nor-BNI, norbinaltorphimine]",Time of maximal mean plasma level,"[1]; 10 mg kg^-1 i.p., mice",30 min
same,"[drug],brain (free base equivalent)",[1]; [4],477 ng/g and 471 ng/g and 309 ng/g and 609 ng/g and 438 ng/g
same,"[drug],plasma (free base equivalent)",[1]; [4],6130 ng/mL and 4810 ng/mL and 2110 ng/mL and 3050 ng/mL
same,"[drug],brain (free base equivalent)",[1]; [5],250 ng/g and 396 ng/g and 299 ng/g and 372 ng/g and 207 ng/g
same,"[drug],plasma (free base equivalent)",[1]; [5],3060 ng/mL and 2060 ng/mL and 1510 ng/mL and 1140 ng/mL and 1170 ng/mL
same,"[drug],brain (free base equivalent)",[1]; [6],<120 ng/g
same,"[drug],plasma (free base equivalent)",[1]; [6],343 ng/mL and 309 ng/mL
same,"[drug],plasma (free base equivalent)","[1]; 4 h, 10 mg/kg i.p., individual mice",173 ng/mL and 156 ng/mL
same,"[drug],plasma (free base equivalent)","[1]; 24 h, 10 mg/kg i.p., individual mice",63 ng/mL and 50 ng/mL and 14 ng/mL
same,Peak unbound brain level,"[1]; at 30 minutes, 10 mg kg^-1 i.p., estimate",≤ 26 nM
same,AUMC 0-inf_obs,"[1]; brain NCA, 10 mg/kg i.p.",712.925 ng/ml*h^2
same,Tlag,"[1]; brain NCA, 10 mg/kg i.p.",0 h
same,"C max,brain","[1]; brain, 10 mg kg^-1 i.p., mice",443 ng/mL
same,AUC(0-inf),"[1]; Swiss-Webster (Crl:CFW(SW)), brain, ip, brain NCA, 10 mg/kg i.p., read-out: AUC 0-inf_obs",593 ng·h/mL
same,Kp uu,"[1]; Swiss-Webster (Crl:CFW(SW)), brain/plasma (unbound), ip, supplement, 10 mg/kg i.p., read-out: Kp,uu,brain (AUC0–∞,brain,u / AUC0–∞,p,u)",< 0.00725
same,Kp,"[1]; Swiss-Webster (Crl:CFW(SW)), brain/plasma, ip, supplement, 10 mg/kg i.p., read-out: Kp,brain (AUC0–∞,brain / AUC0–∞,p)",0.0924
same,MRT inf,"[1]; Swiss-Webster (Crl:CFW(SW)), ip, brain NCA, 10 mg/kg i.p.",72.1 min
same,Kp uu,"[1]; Swiss-Webster, brain and plasma (unbound), ip, 10 mg kg^-1 i.p., mice, read-out: Cmax,brain,u/Cmax,p,u",< 0.009
same,Kp uu,"[1]; Swiss-Webster, brain and plasma (unbound), ip, 10 mg kg^-1 i.p., mice, read-out: K p,uu,brain (AUC0–∞,brain,u/AUC0–∞,p,u)",< 0.007
same,Kp,"[1]; Swiss-Webster, brain and plasma, ip, 10 mg kg^-1 i.p., mice, read-out: Cmax,brain/Cmax,p",0.11
same,Kp,"[1]; Swiss-Webster, brain and plasma, ip, 10 mg kg^-1 i.p., mice, read-out: K p,brain (AUC0–∞,brain/AUC0–∞,p)",0.09
same,concentration at 0.5 h,"[1]; Swiss-Webster, brain, intraperitoneal, 0.5 h, read-out: Conc (brain, NCA input)",443 ng/mL
same,concentration at 1 h,"[1]; Swiss-Webster, brain, intraperitoneal, 1 h, read-out: Conc (brain, NCA input)",308 ng/mL
same,concentration at 2 h,"[1]; Swiss-Webster, brain, intraperitoneal, 2 h, read-out: Conc (brain, NCA input)",96.3 ng/mL
same,concentration at 0.5 h,"[1]; Swiss-Webster, brain, ip, 0.5 h, 10 mg/kg i.p., individual mice, read-out: [drug],brain (free base equivalent)",354 ng/g
same,concentration at 0.5 h,"[1]; Swiss-Webster, brain, ip, 0.5 h, 10 mg/kg i.p., read-out: mean (brain)",443 ng/g
same,concentration at 1 h,"[1]; Swiss-Webster, brain, ip, 1 h, 10 mg/kg i.p., individual mice, read-out: [drug],brain (free base equivalent)",324 ng/g
same,concentration at 1 h,"[1]; Swiss-Webster, brain, ip, 1 h, 10 mg/kg i.p., read-out: mean (brain)",308 ng/g
same,concentration at 2 h,"[1]; Swiss-Webster, brain, ip, 2 h, 10 mg/kg i.p., individual mice, read-out: [drug],brain (free base equivalent)",169 ng/g
same,concentration at 2 h,"[1]; Swiss-Webster, brain, ip, 2 h, 10 mg/kg i.p., <MRC substituted by MRC/2, read-out: mean (brain)",96 ng/g
same,AUC(0-inf),"[1]; Swiss-Webster, brain, ip, brain, 10 mg kg^-1 i.p., non-compartmental analysis, read-out: AUC 0–∞,brain",593 ng·h/mL
same,Tmax,"[1]; Swiss-Webster, in vivo, ip, ·2HCl salts, 10 mg kg^-1 i.p., mice",30 min
same,AUC(0-t),[1]; [7],501 ng·h/mL
same,Tmax,[1]; [7],30 min
same,Cmax,"[1]; Swiss-Webster, ip, brain NCA, 10 mg/kg i.p., read-out: Cmax",443 ng/mL
same,k el,[1]; [7],0.000288 s⁻¹
same,half-life,[1]; [7],40.1 min
same,AUC(0-t),[1]; [8],5910 ng·h/mL
same,Tmax,[1]; [8],30 min
same,k el,[1]; [8],2.28e-05 s⁻¹
same,MRT inf,[1]; [8],360 min
same,half-life,[1]; [8],507 min
same,Cmax,"[1]; Swiss-Webster, ip, plasma, 10 mg kg^-1 i.p., mice, read-out: C max,p",4020 ng/mL
same,concentration at 0.5 h,"[1]; Swiss-Webster, plasma, intraperitoneal, 0.5 h, read-out: Conc (plasma, NCA input)",4020 ng/mL
same,concentration at 1 h,"[1]; Swiss-Webster, plasma, intraperitoneal, 1 h, read-out: Conc (plasma, NCA input)",1790 ng/mL
same,concentration at 2 h,"[1]; Swiss-Webster, plasma, intraperitoneal, 2 h, read-out: Conc (plasma, NCA input)",339 ng/mL
same,concentration at 4 h,"[1]; Swiss-Webster, plasma, intraperitoneal, 4 h, read-out: Conc (plasma, NCA input)",148 ng/mL
same,concentration at 24 h,"[1]; Swiss-Webster, plasma, intraperitoneal, 24 h, read-out: Conc (plasma, NCA input)",42 ng/mL
same,concentration at 0.5 h,"[1]; Swiss-Webster, plasma, ip, 0.5 h, 10 mg/kg i.p., read-out: mean (plasma)",4020 ng/mL
same,concentration at 1 h,"[1]; Swiss-Webster, plasma, ip, 1 h, 10 mg/kg i.p., read-out: mean (plasma)",1790 ng/mL
same,concentration at 2 h,"[1]; Swiss-Webster, plasma, ip, 2 h, 10 mg/kg i.p., individual mice, read-out: [drug],plasma (free base equivalent)",366 ng/mL
same,concentration at 2 h,"[1]; Swiss-Webster, plasma, ip, 2 h, 10 mg/kg i.p., read-out: mean (plasma)",339 ng/mL
same,concentration at 4 h,"[1]; Swiss-Webster, plasma, ip, 4 h, 10 mg/kg i.p., individual mice, read-out: [drug],plasma (free base equivalent)",116 ng/mL
same,concentration at 4 h,"[1]; Swiss-Webster, plasma, ip, 4 h, 10 mg/kg i.p., read-out: mean (plasma)",148 ng/mL
same,concentration at 24 h,"[1]; Swiss-Webster, plasma, ip, 24 h, 10 mg/kg i.p., <MRC substituted by MRC/2, read-out: mean (plasma)",42 ng/mL
same,AUC(0-inf),"[1]; Swiss-Webster, plasma, ip, plasma NCA, 10 mg/kg i.p., read-out: AUC 0-inf_obs",6420 ng·h/mL
same,CL/F,"[1]; Swiss-Webster, plasma, ip, plasma NCA, 10 mg/kg i.p., read-out: Cl/F_obs (converted)",26 mL/min/kg
same,Vd/F,"[1]; Swiss-Webster, plasma, ip, plasma NCA, 10 mg/kg i.p., read-out: Vz/F_obs",19 L/kg
same,AUC(0-inf),"[1]; Swiss-Webster, plasma, ip, plasma, 10 mg kg^-1 i.p., non-compartmental analysis, read-out: AUC 0–∞,p",6420 ng·h/mL
same,CL/F,"[1]; Swiss-Webster, plasma, ip, plasma, 10 mg kg^-1 i.p., non-compartmental analysis, read-out: CL/F (converted)",28.3 mL/min/kg
same,Vd/F,"[1]; Swiss-Webster, plasma, ip, plasma, 10 mg kg^-1 i.p., non-compartmental analysis, read-out: V z /F",19 L/kg
same,AUMC 0-inf_obs,"[1]; plasma NCA, 10 mg/kg i.p.",38503.5 ng/ml*h^2
same,Tlag,"[1]; plasma NCA, 10 mg/kg i.p.",0 h
same,"C max,brain,u","[1]; unbound brain, 10 mg kg^-1 i.p., in vivo brain binding assumed at least 3-fold greater than homogenate",< 26 nM
same,Decline of mean brain level from peak,[1]; [9],31%
same,Decline of mean plasma concentration from peak,[1]; [9],56%
same,Decline of mean plasma concentration from peak,"[1]; within 2 hours, 10 mg kg^-1 i.p.",92%
same,Decline of brain levels,[1]; [10],at least 75%
same,Decline of mean plasma concentration from peak,[1]; [10],at least 80%
same,"fraction unbound at 5 h, 5 μM",[2],0.51
same,"fraction unbound at 5 h, 5 μM","[3]; 5 μM drug, mean, n = 3, corrected for dilution, read-out: Fraction unbound, Brain homogenate",0.12
same,"fraction unbound at 5 h, 5 μM","[3]; Brain homogenate, read-out: % free (uncorrected)",0.28
same,"fraction unbound at 5 h, 5 μM","[3]; mouse, assumed at least 3-fold lower than in homogenate, read-out: Fu,brain (in vivo est.)",< 0.04
same,Behavioral effects observed,mice,"Only mild behavioral effects, such as hiccup-like spasms and shivering"
same,Fatalities,mice,no fatalities
